Measurements published in US12187723B2 (BRISTOL-MYERS SQUIBB COMPANY, priority 2019, dated 2025).

How the values were obtained:
human TLR9 = target: T1, human TLR9 (Homo sapiens, UniProt Q9NR96); assay: TLR9 inhibition reporter assay (HEK-Blue SEAP); type: cell-based; details: HEK-Blue cells overexpressing human TLR9, ODN2006 5 nM, 22 hour incubation
T1 construct: host or cells: HEK-Blue cells
T1 sequence (Q9NR96 26-1032): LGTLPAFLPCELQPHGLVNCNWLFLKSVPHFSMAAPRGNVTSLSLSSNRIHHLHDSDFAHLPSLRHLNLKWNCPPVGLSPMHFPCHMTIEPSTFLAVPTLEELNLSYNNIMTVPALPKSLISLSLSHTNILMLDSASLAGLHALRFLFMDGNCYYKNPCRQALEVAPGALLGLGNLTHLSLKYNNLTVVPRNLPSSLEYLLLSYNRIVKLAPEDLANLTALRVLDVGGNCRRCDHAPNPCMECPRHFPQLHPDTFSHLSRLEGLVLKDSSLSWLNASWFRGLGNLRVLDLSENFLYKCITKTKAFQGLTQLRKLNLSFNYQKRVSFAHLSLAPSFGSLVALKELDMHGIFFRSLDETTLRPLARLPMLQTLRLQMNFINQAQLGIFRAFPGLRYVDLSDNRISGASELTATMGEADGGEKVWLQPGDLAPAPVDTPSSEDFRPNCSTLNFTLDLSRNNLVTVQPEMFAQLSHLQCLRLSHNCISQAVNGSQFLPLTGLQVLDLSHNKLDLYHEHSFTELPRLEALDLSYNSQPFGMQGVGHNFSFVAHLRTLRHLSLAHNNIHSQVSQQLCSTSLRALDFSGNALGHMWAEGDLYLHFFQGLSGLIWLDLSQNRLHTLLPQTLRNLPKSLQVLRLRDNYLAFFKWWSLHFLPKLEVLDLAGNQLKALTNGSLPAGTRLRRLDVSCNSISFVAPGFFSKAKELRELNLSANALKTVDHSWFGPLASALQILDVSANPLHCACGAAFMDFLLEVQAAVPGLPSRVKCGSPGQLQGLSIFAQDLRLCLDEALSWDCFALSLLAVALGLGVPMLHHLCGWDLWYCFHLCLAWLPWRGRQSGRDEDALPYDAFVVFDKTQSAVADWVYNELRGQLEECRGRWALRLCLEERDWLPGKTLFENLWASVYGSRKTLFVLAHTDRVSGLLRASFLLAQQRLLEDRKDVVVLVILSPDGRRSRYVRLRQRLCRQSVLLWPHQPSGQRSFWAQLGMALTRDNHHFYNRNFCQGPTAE
Summary of the method: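 Compound treatment: 30 min, RT, 0.05 nM–50 μM final. Agonist: TLR7 gardiquimod 7.5 μM; TLR8 R848 15.9 μM; TLR9 ODN2006 5 nM. Incubation 22 h, 37 °C, 5% CO2. Readout SEAP, HEK-Blue Detection.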

human TLR7 = target: T2, human TLR7 (Homo sapiens, UniProt Q9NYK1); assay: TLR7 inhibition reporter assay (HEK-Blue SEAP); type: cell-based; details: HEK-Blue cells overexpressing human TLR7, gardiquimod 7.5 μM, 22 hour incubation
T2 construct: host or cells: HEK-Blue cells
T2 sequence (Q9NYK1 27-1049): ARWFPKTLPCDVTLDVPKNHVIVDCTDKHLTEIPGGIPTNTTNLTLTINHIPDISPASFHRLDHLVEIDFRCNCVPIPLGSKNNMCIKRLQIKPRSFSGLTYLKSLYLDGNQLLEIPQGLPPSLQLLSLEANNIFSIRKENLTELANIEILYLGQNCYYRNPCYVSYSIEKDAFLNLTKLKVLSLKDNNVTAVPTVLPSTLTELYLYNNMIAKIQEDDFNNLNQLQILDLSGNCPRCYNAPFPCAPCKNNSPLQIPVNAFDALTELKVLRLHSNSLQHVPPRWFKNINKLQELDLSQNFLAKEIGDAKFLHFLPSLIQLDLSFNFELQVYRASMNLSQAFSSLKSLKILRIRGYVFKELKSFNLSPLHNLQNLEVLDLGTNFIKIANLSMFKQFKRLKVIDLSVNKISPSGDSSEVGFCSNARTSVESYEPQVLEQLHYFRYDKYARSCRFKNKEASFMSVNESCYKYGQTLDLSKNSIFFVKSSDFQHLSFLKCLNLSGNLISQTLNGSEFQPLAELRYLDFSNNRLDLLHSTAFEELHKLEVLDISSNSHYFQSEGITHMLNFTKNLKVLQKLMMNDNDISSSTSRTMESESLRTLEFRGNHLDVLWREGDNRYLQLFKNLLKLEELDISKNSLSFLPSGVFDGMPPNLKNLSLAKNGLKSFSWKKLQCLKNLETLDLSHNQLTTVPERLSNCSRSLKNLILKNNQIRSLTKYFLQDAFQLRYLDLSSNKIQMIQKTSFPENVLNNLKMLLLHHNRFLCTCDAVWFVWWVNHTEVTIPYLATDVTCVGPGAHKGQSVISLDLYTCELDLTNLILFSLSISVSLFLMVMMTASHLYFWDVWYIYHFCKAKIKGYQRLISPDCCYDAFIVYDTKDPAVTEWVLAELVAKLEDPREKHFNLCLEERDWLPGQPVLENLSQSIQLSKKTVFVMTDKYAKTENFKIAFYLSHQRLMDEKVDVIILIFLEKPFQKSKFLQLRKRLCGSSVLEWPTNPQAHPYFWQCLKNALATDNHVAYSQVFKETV
Summary of the method: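 22 h, 37° C, 5% CO2 incubation; compounds 0.05 nM-50 μM final; TLR7 cells 15000/well, TLR8 20,000/well. Readout: SEAP via HEK-Blue Detection medium. % inhibition = signal reduction versus agonist + DMSO wells, referenced to known inhibitor.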

Structure (SMILES) | IC50 (human TLR9) [nM] | IC50 (human TLR7) [nM]
CCC(CC)CN1CCC(n2c(=O)[nH]c3cc(-c4cc(OC)c5ncnn5c4)ccc32)CC1 [Example 75, 1-(1-(2-ethylbutyl)piperidin-4-yl)-5-(8-methoxy-[1,2,4]triazolo[1,5-a]pyridin-6-yl)-1,3-dihydro-2H-benzo[d]imidazol-2-one] | 2780 | 1360
CCCN1CCC(n2c(=O)[nH]c3cc(-c4cc(OC)c5ncnn5c4)ccc32)CC1 [Example 76, 5-(8-methoxy-[1,2,4]triazolo[1,5-a]pyridin-6-yl)-1-(1-propylpiperidin-4-yl)-1,3-dihydro-2H-benzo[d]imidazol-2-one] | 1710 | 1480
COc1cc(-c2ccc3c(c2)[nH]c(=O)n3C2CCN(C(C)C)CC2)cn2ncnc12 [Example 77, 1-(1-isopropylpiperidin-4-yl)-5-(8-methoxy-[1,2,4]triazolo[1,5-a]pyridin-6-yl)-1,3-dihydro-2H-benzo[d]imidazol-2-one] | 417 | 1530
COc1cc(-c2ccc3c(c2)[nH]c(=O)n3C2CCN(CC3CCOCC3)CC2)cn2ncnc12 [Example 78, 5-(8-methoxy-[1,2,4]triazolo[1,5-a]pyridin-6-yl)-1-(1-((tetrahydro-2H-pyran-4-yl)methyl)piperidin-4-yl)-1,3-dihydro-2H-benzo[d]imidazol-2-one] | 2850 | 1120
COc1cc(-c2ccc3c(c2)[nH]c(=O)n3C2CCN(CC3CC3)CC2)cn2ncnc12 [Example 79, 1-(1-(cyclopropylmethyl)piperidin-4-yl)-5-(8-methoxy-[1,2,4]triazolo[1,5-a]pyridin-6-yl)-1,3-dihydro-2H-benzo[d]imidazol-2-one] | 3900 | > 3130
COc1cc(-c2ccc3c(c2)[nH]c(=O)n3C2CCN(C3COC3)CC2)cn2ncnc12 [Example 80, 5-(8-methoxy-[1,2,4]triazolo[1,5-a]pyridin-6-yl)-1-(1-(oxetan-3-yl)piperidin-4-yl)-1,3-dihydro-2H-benzo[d]imidazol-2-one] | 39600 | > 3130
COc1cc(-c2ccc3c(c2)[nH]c(=O)n3C2CCN(C3CCOC3)CC2)cn2ncnc12 (stereo not drawn) [Example 81, 5-(8-methoxy-[1,2,4]triazolo[1,5-a]pyridin-6-yl)-1-(1-(tetrahydrofuran-3-yl)piperidin-4-yl)-1,3-dihydro-2H-benzo[d]imidazol-2-one] | 3880 | 2640
COc1cc(-c2ccc3c(c2)[nH]c(=O)n3C2CCN(CC3CCOC3)CC2)cn2ncnc12 (stereo not drawn) [Example 82, 5-(8-methoxy-[1,2,4]triazolo[1,5-a]pyridin-6-yl)-1-(1-((tetrahydrofuran-3-yl)methyl)piperidin-4-yl)-1,3-dihydro-2H-benzo[d]imidazol-2-one] | 4770 | 1300
COc1cc(-c2ccc3c(c2)[nH]c(=O)n3C2CCN(C3CCC3)CC2)cn2ncnc12 [Example 83, 1-(1-cyclobutylpiperidin-4-yl)-5-(8-methoxy-[1,2,4]triazolo[1,5-a]pyridin-6-yl)-1,3-dihydro-2H-benzo[d]imidazol-2-one] | 5370 | 2480
COc1cc(-c2cc3[nH]c(=O)n([C@H]4CC[C@@H](N(C)C(C)C)CC4)c3cc2C)cn2ncnc12 [Example 84, 1-((1s,4s)-4-(isopropyl(methyl)amino)cyclohexyl)-5-(8-methoxy-[1,2,4]triazolo[1,5-a]pyridin-6-yl)-6-methyl-1,3-dihydro-2H-benzo[d]imidazol-2-one] | 4780 | 16

Further lines, results first:

IC50 (human TLR9) [nM] | IC50 (human TLR7) [nM] | Structure (SMILES)
7940 | 21.4 | COc1cc(-c2cc3[nH]c(=O)n([C@H]4CC[C@@H](N(C)C5CCOCC5)CC4)c3cc2C)cn2ncnc12 [Example 85, 5-(8-methoxy-[1,2,4]triazolo[1,5-a]pyridin-6-yl)-6-methyl-1-((1s,4s)-4-(methyl(tetrahydro-2H-pyran-4-yl)amino)cyclohexyl)-1,3-dihydro-2H-benzo[d]imidazol-2-one]
4930 | 142 | COc1cc(-c2cc3[nH]c(=O)n(C4CCN(CC(=O)N(C)C)CC4)c3cc2C)cn2ncnc12 [Example 86, 2-(4-(5-(8-methoxy-[1,2,4]triazolo[1,5-a]pyridin-6-yl)-6-methyl-2-oxo-2,3-dihydro-1H-benzo[d]imidazol-1-yl)piperidin-1-yl)-N,N-dimethylacetamide]
22400 | 497 | CNC(=O)CN1CCC(n2c(=O)[nH]c3cc(-c4cc(OC)c5ncnn5c4)c(C)cc32)CC1 [Example 87, 2-(4-(5-(8-methoxy-[1,2,4]triazolo[1,5-a]pyridin-6-yl)-6-methyl-2-oxo-2,3-dihydro-1H-benzo[d]imidazol-1-yl)piperidin-1-yl)-N-methylacetamide]
45300 | 333 | CNC(=O)CN1CCC(n2c(=O)[nH]c3cc(-c4cc(C)c5ncnn5c4)c(C)cc32)CC1 [Example 88, N-methyl-2-(4-(6-methyl-5-(8-methyl-[1,2,4]triazolo[1,5-a]pyridin-6-yl)-2-oxo-2,3-dihydro-1H-benzo[d]imidazol-1-yl)piperidin-1-yl)acetamide]
29000 | 111 | Cc1cc2c(cc1-c1cc(C)c3ncnn3c1)[nH]c(=O)n2C1CCN(CC(=O)N(C)C)CC1 [Example 89, N,N-dimethyl-2-(4-(6-methyl-5-(8-methyl-[1,2,4]triazolo[1,5-a]pyridin-6-yl)-2-oxo-2,3-dihydro-1H-benzo[d]imidazol-1-yl)piperidin-1-yl)acetamide]
14600 | 2160 | Cc1cc(-c2ccc3c(c2)[nH]c(=O)n3C2CCN(CC(=O)N(C)C)CC2)cn2ncnc12 [Example 90, N,N-dimethyl-2-(4-(5-(8-methyl-[1,2,4]triazolo[1,5-a]pyridin-6-yl)-2-oxo-2,3-dihydro-1H-benzo[d]imidazol-1-yl)piperidin-1-yl)acetamide]
> 50000 | > 3130 | Cc1cc2c(cc1-c1cc(C)c3ncnn3c1)[nH]c(=O)n2C1CCN(CC(=O)N(C)C)CC1 [Example 91, N,N-dimethyl-2-(4-(6-methyl-5-(8-methyl-[1,2,4]triazolo[1,5-a]pyridin-6-yl)-2-oxo-2,3-dihydro-1H-benzo[d]imidazol-1-yl)piperidin-1-yl)acetamide]
21100 | 820 | Cc1cc2c(cc1-c1cc(C)c3ncnn3c1)[nH]c(=O)n2[C@H]1CCCN(CC(N)=O)C1 [Example 92, (S)-2-(3-(6-methyl-5-(8-methyl-[1,2,4]triazolo[1,5-a]pyridin-6-yl)-2-oxo-2,3-dihydro-1H-benzo[d]imidazol-1-yl)piperidin-1-yl)acetamide]
